Values of other authors as cited in publication PMC9054096 (RSC Advances, 2020).

What was measured:
Human galectin-9N = Human galectin-9N (Homo sapiens, UniProt O00182); details: read-out: Galectin-9N affinity (Kd); reference compound
Human galectin-3 = Human galectin-3 (Homo sapiens, UniProt P17931); details: read-out: Galectin-3 affinity (Kd); reference compound
Human galectin-1 = Human galectin-1 (Homo sapiens, UniProt P09382); details: read-out: Galectin-1 affinity (Kd); reference compound
Human galectin-4C = molecular target: T1, Human galectin-4C (Homo sapiens, UniProt P56470); details: read-out: Galectin-4C affinity (Kd); reference compound
T1 sequence (P56470 194-323 limits assumed): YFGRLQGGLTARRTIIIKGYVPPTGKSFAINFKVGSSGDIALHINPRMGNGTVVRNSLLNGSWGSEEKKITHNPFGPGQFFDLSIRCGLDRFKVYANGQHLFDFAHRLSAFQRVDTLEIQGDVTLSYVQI

Human galectin-9C = Human galectin-9C (Homo sapiens, UniProt O00182); details: read-out: Galectin-9C affinity (Kd); reference compound
Sequence of Human galectin-9C (O00182 227-355 limits assumed): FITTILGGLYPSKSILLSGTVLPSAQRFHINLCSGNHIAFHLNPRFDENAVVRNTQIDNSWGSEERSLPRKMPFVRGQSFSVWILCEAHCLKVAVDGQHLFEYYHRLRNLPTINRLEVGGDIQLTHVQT

Human galectin-4N = molecular target: T2, Human galectin-4N (Homo sapiens, UniProt P56470); details: read-out: Galectin-4N affinity (Kd); reference compound
T2 sequence (P56470 19-150 limits assumed): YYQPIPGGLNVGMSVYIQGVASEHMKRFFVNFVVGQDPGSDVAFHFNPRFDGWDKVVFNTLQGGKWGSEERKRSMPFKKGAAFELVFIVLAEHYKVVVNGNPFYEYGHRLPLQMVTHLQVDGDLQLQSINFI

Sequence of Human galectin-1 (P09382 whole entry): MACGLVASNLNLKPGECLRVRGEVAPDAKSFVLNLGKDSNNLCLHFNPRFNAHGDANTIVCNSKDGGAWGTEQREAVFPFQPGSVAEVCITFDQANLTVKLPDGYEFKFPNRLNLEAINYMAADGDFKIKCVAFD
Sequence of Human galectin-3 (P17931 whole entry): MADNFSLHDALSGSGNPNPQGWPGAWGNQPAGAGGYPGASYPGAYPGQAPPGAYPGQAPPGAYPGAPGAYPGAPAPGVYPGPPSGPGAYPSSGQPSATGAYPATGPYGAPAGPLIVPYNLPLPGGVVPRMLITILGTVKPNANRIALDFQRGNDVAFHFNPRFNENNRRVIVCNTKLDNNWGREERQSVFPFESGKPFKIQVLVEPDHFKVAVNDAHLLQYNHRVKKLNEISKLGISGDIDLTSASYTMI
Sequence of Human galectin-9N (O00182 17-148 limits assumed): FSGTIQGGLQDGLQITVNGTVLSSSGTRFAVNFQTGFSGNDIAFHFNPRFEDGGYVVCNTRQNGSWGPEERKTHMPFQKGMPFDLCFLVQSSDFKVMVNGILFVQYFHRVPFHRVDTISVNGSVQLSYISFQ

Kd (Human galectin-9N): 2060 ± 90 nM
Kd (Human galectin-3): 1270 ± 70 nM
Kd (Human galectin-1): 48 ± 4.4 µM
Kd (Human galectin-4C): 43 ± 5.7 µM
Kd (Human galectin-9C): 14 ± 1.3 µM
Kd (Human galectin-4N): 43 ± 7.1 µM
Structure (SMILES): O=C(O)c1ccc2ccc(CO[C@@H]3[C@@H](O)[C@@H](Sc4ccc(Cl)c(Cl)c4)O[C@H](CO)[C@@H]3O)nc2c1 [Compound 2, 3,4-dichlorophenyl 3-O-(7-carboxy-quinolin-2-yl-methyl)-1-thio-α-D-galactopyranoside]
